Target: G-protein coupled receptor 55 (Homo sapiens, UniProt Q9Y2T6)
Assay: Activation of recombinant human GPR55 expressed in HEK293 cells assessed as increase in [35S]-GTPgammaS stimulation incubated for 60 min by scintillation counting method
Format: functional, cell-based

Chain of G-protein coupled receptor 55 (Q9Y2T6 whole entry): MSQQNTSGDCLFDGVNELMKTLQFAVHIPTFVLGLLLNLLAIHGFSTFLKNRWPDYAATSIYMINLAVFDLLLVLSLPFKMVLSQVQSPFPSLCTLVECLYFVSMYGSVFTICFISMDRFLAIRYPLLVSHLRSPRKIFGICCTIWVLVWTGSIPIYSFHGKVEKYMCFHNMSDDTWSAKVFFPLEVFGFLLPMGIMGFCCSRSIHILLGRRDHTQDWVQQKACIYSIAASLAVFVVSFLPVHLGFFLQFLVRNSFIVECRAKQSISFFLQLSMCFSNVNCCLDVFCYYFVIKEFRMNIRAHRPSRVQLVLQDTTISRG

Structure (SMILES) | EC50 [nM]
C=C(C)[C@@H]1CCC(C)=C[C@H]1c1c(O)cc(O)cc1CCCCC | 2
C=C(C)[C@@H]1CCC(C)=C[C@H]1c1c(C)cc(O)cc1O | 2

Reference: ChEMBL document CHEMBL4680278 (J Med Chem, 2020)
